From patent publication US20260062422A1 (Halda Therapeutics OpCo, Inc., priority 2022, published 2026) come the findings set out here.

In assay [1] the test system is T-Rex 293 cell line SC3 cells having increased expression of androgen receptor protein due to exposure to doxycycline. The assay can be described thus: Cellular growth inhibition, T-Rex 293 SC3 cells with doxycycline (androgen receptor induced), CellTiter-Glo. The assay is classed as cell-based. To be noted: 72 h, T-Rex 293 SC3 cells with 10 ng/mL doxycycline (increased androgen receptor expression). Put shortly:
(§1)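 SC3 is a T-Rex 293 clone stably transfected with wild-type androgen receptor in pcDNA4/TO, inducible by 10 ng/mL doxycycline. Cells were grown in phenol red-free DMEM with 10% charcoal-dextran FBS, with or without doxycycline, dosed 24 h after seeding (0.5% DMSO) for 72 h. Viability was read by CellTiter-Glo 2.0 luminescence and GI50 obtained from four-parameter fits.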
On the technique in general: In ATP-based viability assays light output follows the ATP content of the culture.

A further assay has as its system VCaP cells. The assay is described as follows: Cellular growth inhibition assay for VCaP cells, CellTiter-Glo. The class given is cell-based, human. To be noted: 72 hours treatment, CellTiter-Glo 2.0. The method, boiled down: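 GI50 values come from four-parameter curve fits of luminescence data normalized to a zero baseline. Compound, in medium with 0.5% DMSO, was added one day after plating and left for 72 h before CellTiter-Glo 2.0 addition.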

The test system of assay [2] is T-Rex 293 cell line SC3 cells lacking increased expression of androgen receptor protein. The assay is described as follows: Cellular growth inhibition, T-Rex 293 SC3 cells without doxycycline, CellTiter-Glo. The class given is cell-based. The note with it: 72 h, T-Rex 293 SC3 cells not exposed to doxycycline, CellTiter-Glo 2.0. Put shortly: as §1

By GI50 is commonly meant the concentration giving 50% growth inhibition. Read a low GI50 as greater sensitivity of the cells. As to `Cc1sc2c(c1C)C(c1ccc(Cl)cc1)=N[C@@H](CC(=O)NCCOC1CCN(c3ncc(C(=O)N[C@H]4C(C)(C)[C@H](Oc5ccc(C#N)c(Cl)c5)C4(C)C)cn3)CC1)c1nnc(C)n1-2` [Compound I-6], the GI50 in assay [1] was below 500 nM; in the assay on VCaP cells (Homo sapiens, VCaP, 72 h) it was below 500 nM; in assay [2] it was 500 to 1500 nM.
In the case of `Cc1sc2c(c1C)C(c1ccc(CC3CC4(CCN(c5ncc(C(=O)N[C@H]6C(C)(C)[C@H](Oc7ccc(C#N)c(Cl)c7)C6(C)C)cn5)CC4)C3)cc1)=N[C@@H](C)c1nnc(C)n1-2` [Compound I-436], the GI50 in assay [1] was below 500 nM; in the assay on VCaP cells (Homo sapiens, VCaP, 72 h), above 3000 nM; in assay [2], 1500 to 3000 nM.
Turning to `Cc1sc2c(c1C)C(c1ccc(C#CCN3CCN(c4ncc(C(=O)N[C@H]5C(C)(C)[C@H](Oc6ccc(C#N)c(Cl)c6)C5(C)C)cn4)CC3)cc1)=N[C@@H](CC(=O)OC(C)(C)C)c1nnc(C)n1-2` [Compound I-55], the GI50 in assay [1] was below 500 nM; in the assay on VCaP cells (Homo sapiens, VCaP, 72 h) it was above 3000 nM; in assay [2], above 3000 nM.
As to `CCNC(=O)C[C@@H]1N=C(c2ccc(OCCCN(C)c3ncc(C(=O)N[C@H]4C(C)(C)[C@H](Oc5ccc(C#N)c(Cl)c5)C4(C)C)cn3)cc2)c2c(sc(C)c2C)-n2c(C)nnc21` [Compound I-81], the GI50 in assay [1] is below 500 nM; in the assay on VCaP cells (Homo sapiens, VCaP, 72 h) it was below 500 nM; in assay [2], 500 to 1500 nM.
For the molecule `Cc1sc2c(c1C)C(c1ccc(CCCOC3CCN(c4ncc(C(=O)N[C@H]5C(C)(C)[C@H](Oc6ccc(C#N)c(Cl)c6)C5(C)C)cn4)CC3)cc1)=N[C@@H](CC(=O)NC1CC1)c1nnc(C)n1-2` [Compound I-102], the GI50 was below 500 nM in assay [1]; below 500 nM in the assay with VCaP cells (Homo sapiens, VCaP, 72 h); above 3000 nM in assay [2].
`CCNC(=O)C[C@@H]1N=C(c2ccc(OCCOC3CCN(c4ncc(C(=O)N[C@H]5C(C)(C)[C@H](Oc6ccc(C#N)c(Cl)c6)C5(C)C)cn4)CC3)cc2F)c2c(sc(C)c2C)-n2c(C)nnc21` [Compound I-75]: the GI50 is below 500 nM in assay [1]; below 500 nM with VCaP cells (Homo sapiens, VCaP, 72 h); 500 to 1500 nM in assay [2].
Take `Cc1sc2c(c1C)C(c1ccc(C3CC3C3CC4(CCN(c5ncc(C(=O)N[C@H]6C(C)(C)[C@H](Oc7ccc(C#N)c(Cl)c7)C6(C)C)cn5)CC4)C3)cc1)=N[C@@H](Cc1ncco1)c1nnc(C)n1-2` (some centres unmarked) [Compound I-237]: the GI50 in assay [1] is below 500 nM; in the assay on VCaP cells (Homo sapiens, VCaP, 72 h) it was below 500 nM; in assay [2], above 3000 nM.
For `CCN(C)C(=O)C[C@@H]1N=C(c2ccc(CCCOC3CCN(c4ncc(C(=O)N[C@H]5C(C)(C)[C@H](Oc6ccc(C#N)c(Cl)c6)C5(C)C)cn4)CC3)cc2)c2c(sc(C)c2C)-n2c(C)nnc21` [Compound I-101], the GI50 is below 500 nM in assay [1]; above 3000 nM in the assay with VCaP cells (Homo sapiens, VCaP, 72 h); above 3000 nM in assay [2].
Consider `Cc1sc2c(c1C)C(c1ccc(OC3CC4(CCN(c5ncc(C(=O)N[C@H]6C(C)(C)[C@H](Oc7ccc(C#N)c(Cl)c7)C6(C)C)cn5)CC4)C3)cc1)=N[C@@H](Cc1ncco1)c1nnc(C)n1-2` [Compound I-49, N-[3-(3-chloro-4-cyano-phenoxy)-2,2,4,4-tetramethyl-cyclobutyl]-2-[2-[4-[(9S)-4,5,13-trimethyl-9-(oxazol-2-ylmethyl)-3-thia-1,8,11,12-tetrazatricyclo[8.3.0.02,6]trideca-2(6),4,7,10,12-pentaen-7-yl]phenoxy]-7-azaspiro[3.5]nonan-7-yl]pyrimidine-5-carboxamide], for which the GI50 was below 500 nM in assay [1]; below 500 nM in the assay with VCaP cells (Homo sapiens, VCaP, 72 h); below 500 nM in assay [2].
For `Cc1sc2c(c1C)C(c1ccc(Cl)cc1)=N[C@@H](CC(=O)NCCOCCOCCOCCOCCOC1CCN(c3ncc(C(=O)N[C@H]4C(C)(C)[C@H](Oc5ccc(C#N)c(Cl)c5)C4(C)C)cn3)CC1)c1nnc(C)n1-2` [Compound I-8], the GI50 in assay [1] is below 500 nM; in the assay with VCaP cells (Homo sapiens, VCaP, 72 h) it was below 500 nM; in assay [2], 1500 to 3000 nM.
`CCNC(=O)C[C@@H]1N=C(c2ccc(OCCCCc3ncc(C(=O)N[C@H]4C(C)(C)[C@H](Oc5ccc(C#N)c(Cl)c5)C4(C)C)cn3)cc2)c2c(sc(C)c2C)-n2c(C)nnc21` [Compound I-86]: the GI50 is below 500 nM in assay [1]; 500 to 1500 nM in the assay with VCaP cells (Homo sapiens, VCaP, 72 h); 1500 to 3000 nM in assay [2].
Turning to `CCNC(=O)C[C@@H]1N=C(c2ccc(CCCN(C)c3ncc(C(=O)N[C@H]4C(C)(C)[C@H](Oc5ccc(C#N)c(Cl)c5)C4(C)C)cn3)cc2)c2c(sc(C)c2C)-n2c(C)nnc21` [Compound I-104], the GI50 in assay [1] is below 500 nM; in the assay with VCaP cells (Homo sapiens, VCaP, 72 h) it was above 3000 nM; in assay [2], below 500 nM.
Regarding `Cc1sc2c(c1C)C(c1ccc(CCCOC3CCN(c4ncc(C(=O)N[C@H]5C(C)(C)[C@H](Oc6ccc(C#N)c(Cl)c6)C5(C)C)cn4)CC3)cc1)=N[C@@H](CC(=O)NC(C)C)c1nnc(C)n1-2` [Compound I-100], the GI50 was below 500 nM in assay [1]; 500 to 1500 nM with VCaP cells (Homo sapiens, VCaP, 72 h); above 3000 nM in assay [2].
Regarding `CCNC(=O)C[C@@H]1N=C(c2ccc(Oc3ncc(C(=O)N[C@H]4C(C)(C)[C@H](Oc5ccc(C#N)c(Cl)c5)C4(C)C)cn3)cc2)c2c(sc(C)c2C)-n2c(C)nnc21` [Compound I-84], the GI50 in assay [1] was in the range of 500 to 1500 nM; in the assay with VCaP cells (Homo sapiens, VCaP, 72 h), 500 to 1500 nM; in assay [2], 1500 to 3000 nM.
As to `CCNC(=O)C[C@@H]1N=C(c2ccc(N(C)C3CC(OC4CCN(c5ncc(C(=O)N[C@H]6C(C)(C)[C@H](Oc7ccc(C#N)c(Cl)c7)C6(C)C)cn5)CC4)C3)cc2)c2c(sc(C)c2C)-n2c(C)nnc21` (some centres unmarked) [Compound I-130], the GI50 in assay [1] is below 500 nM; in the assay on VCaP cells (Homo sapiens, VCaP, 72 h) it was 500 to 1500 nM; in assay [2] it was 500 to 1500 nM.
Take `Cc1sc2c(c1C)C(c1ccc(Cl)cc1)=N[C@@H](CC(=O)NCCOCCOCCOC1CCN(c3ncc(C(=O)N[C@H]4C(C)(C)[C@H](Oc5ccc(C#N)c(Cl)c5)C4(C)C)cn3)CC1)c1nnc(C)n1-2` [Compound I-7]: the GI50 in assay [1] is below 500 nM; with VCaP cells (Homo sapiens, VCaP, 72 h), below 500 nM; in assay [2], 500 to 1500 nM.
In the case of `Cc1sc2c(c1C)C(c1ccc(Cl)cc1)=N[C@@H](CC(=O)NCCN(C)c1ncc(C(=O)N[C@H]3C(C)(C)[C@H](Oc4ccc(C#N)c(Cl)c4)C3(C)C)cn1)c1nnc(C)n1-2` [Compound I-1, N-[3-(3-chloro-4-cyano-phenoxy)-2,2,4,4-tetramethyl-cyclobutyl]-2-[2-[[2-[(9S)-7-(4-chlorophenyl)-4,5,13-trimethyl-3-thia-1,8,11,12-tetrazatricyclo[8.3.0.02,6]trideca-2(6),4,7,10,12-pentaen-9-yl]acetyl]amino]ethyl-methyl-amino]pyrimidine-5-carboxamide], the GI50 in assay [1] and in assay [2] was 1500 to 3000 nM throughout.
`Cc1sc2c(c1C)C(c1cccc(OCCOCCOC3CCN(c4ncc(C(=O)N[C@H]5C(C)(C)[C@H](Oc6ccc(C#N)c(Cl)c6)C5(C)C)cn4)CC3)c1)=N[C@@H](CC(=O)O)c1nnc(C)n1-2` [Compound I-42]: the GI50 in assay [1] was 500 to 1500 nM; in the assay on VCaP cells (Homo sapiens, VCaP, 72 h), 1500 to 3000 nM; in assay [2], above 3000 nM.
For `Cc1sc2c(c1C)C(c1ccc(CC3CC4(CCN(c5ncc(C(=O)N[C@H]6C(C)(C)[C@H](Oc7ccc(C#N)c(Cl)c7)C6(C)C)cn5)CC4)C3)cc1)=N[C@@H](C)c1nnc(C)n1-2` [Compound I-303], the GI50 in the assay with VCaP cells was 1500 to 3000 nM.
Take `Cc1sc2c(c1C)C(c1ccc(Cl)cc1)=N[C@@H](CC(=O)NCCOCCOCCOCC1CCN(c3ncc(C(=O)N[C@H]4C(C)(C)[C@H](Oc5ccc(C#N)c(Cl)c5)C4(C)C)cn3)CC1)c1nnc(C)n1-2` [Compound I-17]: the GI50 in assay [1] was below 500 nM; in assay [2], 500 to 1500 nM.
